Laboratory results taken from patent US20240299481A1, “STEPHANIA CEPHARANTHA-DERIVED ALKALOID-CONTAINING PREPARATION” (JAPAN AS REPRESENTED BY DIRECTOR-GENERAL OF NATIONAL …, priority 2021, published 2024).

Tested on: novel coronavirus mutant strain (alpha mutant strain)
Assay type: cell-based, SARS-COV-2

Structure (SMILES) | antiviral effect (number of viral RNA with increasing addition concentration) | antiviral effect compared with the preparation / other alkaloids
COc1cc2c3cc1Oc1c(OC)c(OC)cc4c1[C@@H](Cc1ccc(O)c(c1)Oc1ccc(cc1)C[C@@H]3N(C)CC2)N(C)CC4 [Berbamine] | showed antiviral effects | weak antiviral effect
COc1ccc2cc1Oc1ccc(cc1)C[C@H]1c3c(cc4c(c3Oc3cc5c(cc3OC)CCN(C)[C@@H]5C2)OCO4)CCN1C [Cepharanthine] | showed antiviral effects | comparable to the Stephania cepharantha-derived alkaloid-containing preparation
COc1cc2c3c(c1OC)Oc1ccc(cc1)C[C@@H]1c4c(cc(OC)c(OC)c4Oc4ccc(cc4)C[C@H]3N(C)CC2)CCN1C [Cycleanine] | showed antiviral effects | comparable to the Stephania cepharantha-derived alkaloid-containing preparation
COc1ccc2cc1Oc1ccc(cc1)C[C@H]1c3cc(c(OC)cc3CCN1C)Oc1c(OC)c(OC)cc3c1[C@@H](C2)N(C)CC3 [Isotetrandrine] | showed antiviral effects | comparable to the Stephania cepharantha-derived alkaloid-containing preparation
